{"source": "PubChem BioAssay AID1902", "about": "(Broad Institute, 2009)", "note": "The source made the active and inactive calls.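 Rule for the calls: active = EC50 no more than a set limit of log units above the highest dose; inactive = the rest.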"}
{"molecular_target": "S. pyogenes SKKanGAS, kanamycin survival, BacTiterGlo, 6 h", "experiment": "SKKanGAS survival reduction under kanamycin, dose response, streptokinase promoter inhibitor project, SKKanGAS strain, luminescence, dose confirmation (AID 1902);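 note: lower survival reflects blocked streptokinase promoter driving kanamycin resistance gene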"}
{"smiles": "Oc1c(Br)cc(Br)cc1CNc1ccc(F)cc1", "EC50": "8.89 µM"}
{"smiles": "Cc1[nH]n(-c2ccccc2)c(=O)c1/C=N\\NC(=O)C1COc2ccccc2O1", "note": "(centres undefined)", "EC50": "1.37 µM"}
{"smiles": "O=C(COc1ccc(-c2ccccc2)cc1)N/N=C/c1cc(O)ccc1Br", "EC50": "2.27 µM"}
{"smiles": "Clc1ccc(/C=N/NC(=Nc2ccccc2)c2ccccn2)c(Cl)c1", "EC50": "13.5 µM"}
{"smiles": "O=C(C[n+]1cnn(CC(=O)c2ccc(Cl)cc2Cl)c1)c1ccc([N+](=O)[O-])cc1", "EC50": "12.3 µM"}
{"smiles": "CCCCc1nc(NCc2ccccc2)c(C#N)c2c1CCCC2", "EC50": "8.22 µM"}
{"smiles": "C/C(N)=C(/C#N)C(=O)COC(=O)c1cc(-c2ccc(Br)cc2)nc2ccccc12", "EC50": "9.97 µM"}
{"smiles": "O=C(Nc1nc2ccc(F)cc2s1)c1ccccn1", "EC50": "0.694 µM"}
{"smiles": "CC1(C)Oc2ccc3ccc(=O)oc3c2/C(=C/NNC(N)=S)C1=O", "EC50": "7.51 µM"}
{"smiles": "O=C(Nc1cc(Cl)ccc1-n1cncn1)c1ccc([N+](=O)[O-])o1", "EC50": "6.73 µM"}
{"smiles": "O=C1Nc2ccccc2S/C1=C/Nc1cccc(Cl)c1", "EC50": "6.77 µM"}
{"smiles": "O=S(=O)(Nc1cccc2c1CCCC2)c1ccc(Cl)cc1", "EC50": "2.92 µM"}
{"smiles": "CSc1ccc(/C=C/c2ccc3cccc(O)c3n2)cc1", "EC50": "1.97 µM"}
{"smiles": "CCCc1ccc(Oc2cn[nH]c2-c2ccc(O)c(C)c2O)cc1", "EC50": "1.8 µM"}
{"smiles": "Cc1cccc(NC(=O)c2sc(Cl)nc2-c2ccccc2)c1", "EC50": "11.2 µM"}
{"smiles": "Clc1ccc(C2C3=C(Nc4ncnn42)c2ccccc2CC3)cc1", "note": "(centres undefined)", "EC50": "11.4 µM"}
{"smiles": "CCCCC(=O)NC(=S)NNC(=O)CCc1ccccc1", "EC50": "5 µM"}
{"smiles": "O=C(CN(c1ccc(Cl)c(C(F)(F)F)c1)S(=O)(=O)c1ccccc1)N/N=C/c1cccc2c1OCCO2", "EC50": "13.4 µM"}
{"smiles": "O=C(Nc1ccc(Cl)c(Cl)c1)O/N=C/c1ccncc1", "EC50": "2.38 µM"}
{"smiles": "CCn1ccnc1CN1CCc2c([nH]c3ccccc23)C1C1CCCCC1", "note": "(centres undefined)", "EC50": "2.02 µM"}
{"smiles": "OC(CNCC1CCCO1)Cn1c2ccc(Br)cc2c2cc(Br)ccc21", "note": "(centres undefined)", "EC50": "3.47 µM"}
{"smiles": "Fc1cccc2sc(Nc3nc4cc5c(cc4s3)OCO5)nc12", "EC50": "> 15 µM (inactive)"}
{"smiles": "Nc1nc(-c2ccccc2)c(N=Nc2cccc3ccccc23)s1", "EC50": "4 µM"}
{"smiles": "O=C(OCc1ccccc1)c1cccc(-c2nnn(Cc3ccccc3)n2)c1", "EC50": "2.73 µM"}
{"smiles": "S=c1[nH]nc(-c2cccs2)n1/N=C/c1cn(-c2ccccc2)nc1-c1ccccc1", "EC50": "7.78 µM"}
{"smiles": "COc1ccccc1Oc1cn[nH]c1-c1ccc(OCC(=O)NN)cc1O", "EC50": "> 15 µM (inactive)"}
{"smiles": "O=C(CSc1nnc(CNC(=O)c2c(F)cccc2F)o1)NCCc1ccccc1", "EC50": "> 15 µM (inactive)"}
{"smiles": "COc1ccc(N2CC(C(=O)Nc3nnc(SCc4cccnc4)s3)CC2=O)cc1", "note": "(centres undefined)", "EC50": "> 15 µM (inactive)"}
{"smiles": "Cc1nnc(SCC2=C(C(=O)O)N3C(=O)C(NC(=O)c4cccc(F)c4F)C3SC2)s1", "note": "(centres undefined)", "EC50": "0.269 µM"}
{"smiles": "Cc1cc(C)nc(N/N=C/c2cc(Br)ccc2O)n1", "EC50": "12.9 µM"}
{"smiles": "CCOC(=O)C1=Nc2ccccc2C1=[N+]=[N-]", "EC50": "0.248 µM"}
{"smiles": "COc1ccc2nc(Nc3nc(C)c(C(C)=O)s3)sc2c1", "EC50": "6.64 µM"}
{"smiles": "CC[C@H]1OC(=O)[C@H](C)[C@@H](O[C@H]2C[C@@](C)(OC)[C@@H](O)[C@H](C)O2)[C@H](C)[C@@H](O[C@@H]2O[C@H](C)C[C@H](N(C)C)[C@H]2O)[C@](C)(O)C[C@@H](C)C(=O)[C@H](C)[C@@H](O)[C@]1(C)O", "EC50": "< 0.06 µM"}
{"smiles": "COCCn1c(N)c(C(=O)Nc2sc3c(c2C(=O)OC)CCCC3)c2nc3ccccc3nc21", "EC50": "4.57 µM"}
{"smiles": "Cc1ccc(C)c(C(=O)COC(=O)c2cc(Cl)nc3ccccc23)c1", "EC50": "10.9 µM"}
{"smiles": "OCCN(CCO)c1ccc(C(c2ccccc2Cl)c2ccc(N(CCO)CCO)cc2Cl)c(Cl)c1", "EC50": "5.06 µM"}
{"smiles": "COC(=O)c1cc(S(=O)(=O)n2nc(C)c(Br)c2C)c(Cl)cc1Cl", "EC50": "1.01 µM"}
{"smiles": "C=C(C)COc1ccc(-c2[nH]ncc2Oc2ccc(OC)cc2)c(O)c1", "EC50": "4.05 µM"}
{"smiles": "CCc1nnc(NC(=O)c2sc3nc4cc(C)ccc4cc3c2N)s1", "EC50": "3.77 µM"}
{"smiles": "COc1ccccc1OCC(=O)Nc1c2c(nn1-c1ccc(F)cc1)CS(=O)(=O)C2", "EC50": "> 15 µM (inactive)"}
{"smiles": "c1ccc(N2CCN(c3nc(-c4ccccn4)nc4ccccc34)CC2)cc1", "EC50": "< 0.06 µM"}
{"smiles": "COc1ccc(-c2cc(C3CCN(c4ccc(C(C)=O)cc4[N+](=O)[O-])CC3)[nH]n2)cc1", "EC50": "2.76 µM"}
{"smiles": "Cc1ccc(OCCn2c(NC(=O)c3ccco3)nc3ccccc32)cc1", "EC50": "3.58 µM"}
{"smiles": "Oc1ccc(CN2CCN(c3ccccc3)CC2)c2cccnc12", "EC50": "3.76 µM"}
{"smiles": "CCc1sc(N(C(=O)Cc2ccccc2)c2cccc(F)c2)nc1-c1ccc(C)cc1", "EC50": "1.77 µM"}
{"smiles": "C=C(CC1([C@@H](NP(=O)(c2ccccc2)c2ccccc2)[C@H]2C[C@@H]2CCCC)CC1)c1ccccc1", "EC50": "3.64 µM"}
{"smiles": "O=C(CN1CCCC1)Nc1ccc(NC(=O)Nc2ccccc2)cc1", "EC50": "> 15 µM (inactive)"}
{"smiles": "Cc1ccc(C2CC(c3cccs3)=NN2C(=O)c2ccc(Br)o2)cc1", "note": "(centres undefined)", "EC50": "1.94 µM"}
{"smiles": "O=C(N/N=C/c1sc2ccccc2c1O)c1cccc2ccccc12", "EC50": "2.52 µM"}
{"smiles": "Cc1cccc(NCC(=O)N/N=C\\c2cccc(Oc3ccccc3)c2)c1", "EC50": "11.9 µM"}
{"smiles": "Cc1ccc(C(C)C)cc1NC(=O)Nc1ccc([N+](=O)[O-])cc1", "EC50": "3.75 µM"}
{"smiles": "CCCCn1c(=O)c(C(=O)NCCc2ccccc2)c(O)c2ccccc21", "EC50": "3.73 µM"}
{"smiles": "O=S(=O)(NC(=NCc1ccccc1)c1ccccc1)c1ccc(Br)cc1", "EC50": "> 15 µM (inactive)"}
{"smiles": "Nc1ccc2c(c1)C(=O)C(=O)c1ccccc1-2", "EC50": "0.754 µM"}
{"smiles": "CN(c1ccccc1)c1nc(N2CCCC2)nc(-n2ccnc2)n1", "EC50": "10.8 µM"}
{"smiles": "CCSc1n[nH]c2nc3c(c(=O)n12)C1(CCCC1)Cc1ccccc1-3", "EC50": "3.75 µM"}
{"smiles": "Cc1cc(Nc2ccccc2)nn1C(=O)c1ccc(Br)cc1", "EC50": "14.6 µM"}
{"smiles": "COc1ccc(CC2=CC(=O)c3ccccc3C2=O)cc1", "EC50": "7.96 µM"}
{"smiles": "CC/C(=C\\C1CCCCC1)C(NP(=O)(c1ccccc1)c1ccccc1)c1ccccc1", "note": "(centres undefined)", "EC50": "1.14 µM"}
{"smiles": "O=C1C(Nc2ccccc2)=C/C(=N/S(=O)(=O)c2cccs2)c2ccccc21", "EC50": "1.33 µM"}
{"smiles": "CSc1nsc2nc(=O)c(/C=C3\\C=Nc4ccccc43)c(N)n12", "EC50": "3.57 µM"}
{"smiles": "O=Nc1c2cc(-c3ccccc3)[nH]nc-2c2ccccc12", "EC50": "6.43 µM"}
{"smiles": "CCOC(=O)c1c(NS(=O)(=O)c2ccc(Br)cc2)sc2c1CCC2", "EC50": "1.6 µM"}
{"smiles": "O=c1[nH]c2ccc(Cl)cc2c(-c2ccccc2)c1N1CCN(c2ccccn2)CC1", "EC50": "2.83 µM"}
{"smiles": "Cc1cccc(/C=C/C(=O)c2cc(Br)ccc(=O)c2O)c1", "EC50": "0.818 µM"}
{"smiles": "Nc1ncc(Br)cc1S(=O)(=O)Nc1cc(C(F)(F)F)cc(C(F)(F)F)c1", "EC50": "6.39 µM"}
{"smiles": "CC12CCC(C/C1=N\\N=C1\\NC(=O)/C(=C\\c3cccc(Br)c3)S1)C2(C)C", "note": "(centres undefined)", "EC50": "0.638 µM"}
{"smiles": "CCCSc1nsc(NC(=O)C(c2ccccc2)c2ccccc2)n1", "EC50": "3.03 µM"}
{"smiles": "N=C1SCC(=O)N1c1ncc(Cc2ccc(F)cc2)s1", "EC50": "1 µM"}
{"smiles": "Oc1ccccc1N=Nc1ccccc1O", "EC50": "0.961 µM"}
{"smiles": "C/C(=N\\Nc1cc(C)nc(-c2ccccc2O)n1)c1ccccc1O", "EC50": "5.37 µM"}
{"smiles": "CCCOC(=O)c1ccc(Oc2c(-c3ccc(OCC)cc3O)n[nH]c2C)cc1", "EC50": "2.02 µM"}
{"smiles": "O/N=C(\\c1ccc(Cl)cc1Cl)c1ncc(C(F)(F)F)cc1Cl", "EC50": "2.74 µM"}
{"smiles": "COc1cc([N+](=O)[O-])cc(/C=N/NC(=O)c2cccnc2)c1O", "EC50": "2.64 µM"}
{"smiles": "COc1ccc(-c2cc(C(F)(F)F)nc(NCc3cccs3)n2)cc1", "EC50": "4.95 µM"}
{"smiles": "Cc1onc(-c2ccccc2)c1C(=O)NC(=S)NNC(=O)c1ccc(O)cc1", "EC50": "0.568 µM"}
{"smiles": "COc1cc(C)ccc1OCCCOc1ccccc1Br", "EC50": "5.9 µM"}
{"smiles": "COC(=O)c1c(NC(=O)COc2ccc(Cl)cc2)sc2c1CC(C)(C)NC2(C)C", "EC50": "12.5 µM"}
{"smiles": "COc1cccc(/C=C(/C(=O)OCC(=O)NC2CCCC(C)C2C)c2ccccc2)c1", "note": "(centres undefined)", "EC50": "8.45 µM"}
